Read-outs that look alike come from different tables or passages of the source.
Legend:
CDK2/cyclin A2 = target: T1, CDK2/cyclin A2 (Homo sapiens, UniProt P24941); test: Human CDK2/cyclin A2 inhibitory activity (QS S Assist CDK2/Cyclin A2_FP Kit, IMAP fluorescence polarization); type: biochemical
T1 construct: purchased Carna Biosciences, Inc. QS S Assist CDK2/Cyclin A2_FP Kit
Description: Human CDK2/Cyclin A^2 Inhibitory Activity
Each compound was analyzed for CDK2/cyclin A2 inhibitory activity with an assay kit (QS S Assist CDK2/Cyclin A2_FP Kit, available from Carna Biosciences, Inc.). This assay kit determines kinase activity on the basis of the IMAP technology by Molecular Devices. Specifically, the kinase activity is determined through quantification of a variation in fluorescent polarization caused by binding of a kinase-phosphorylated fluorescent substance to an IMAP-binding reagent.
An assay buffer was prepared by 10-fold dilution of the 10× assay buffer attached to the kit with distilled water, and each solution was prepared with the assay buffer. The assay buffer contained 20 mM HEPES (pH 7.4), 0.01% Tween 20, and 2 mM dithiothreitol. A test compound solution was prepared by dilution of the test compound with dimethyl sulfoxide (DMSO) to a concentration 100 times higher than the final concentration and then 25-fold dilution with the assay buffer to a concentration four times higher than the final concentration. An ATP/substrate/Metal solution was prepared by five-fold dilution of the 5×ATP/substrate/Metal solution attached to the kit with the assay buffer. An enzyme solution was prepared by dilution of the CDK2/cyclin A2 attached to the kit with the assay buffer to a concentration twice higher than the final concentration (final concentration of CDK2/cyclin A2: 2.5 ng/well). A detection reagent was prepared by five-fold dilution of 5×IMAP-binding buffer A with distilled water and 400-fold dilution of the IMAP-binding reagent with the diluted buffer.
The test compound solution (5 μL/well) and the ATP/substrate/Metal solution (5 μL/well) were added to a 384-well plate, and the enzyme solution or the assay buffer (10 μL/well) was added to the plate (total amount of the reaction mixture: 20 μL/well) for initiation of enzymatic reaction. […] The reaction was performed at room temperature for 60 minutes, and the detection reagent (60 μL/well) was then added to the plate, followed by further reaction for 30 minutes at room temperature under light shielding conditions. Subsequently, fluorescent polarization was determined with a microplate reader at an excitation wavelength of 485 nm and an emission wavelength of 535 nm.
The percent inhibition of enzyme activity was calculated for each test compound (note: enzyme activity=100% in the case of addition of the enzyme solution and addition of DMSO instead of the test compound solution, whereas enzyme activity=0% in the case of addition of the assay buffer instead of the enzyme solution and addition of DMSO instead of the test compound solution). The percent inhibition of enzyme activity was fitted to a dose-response curve, to determine a 50% inhibitory concentration against CDK2/cyclin A2.
In each table, “+++” corresponds to IC50<10 nM, “++” 10 nM≤IC50<100 nM, and “+” 100 nM≤IC50.

CDK4/cyclin D3 = target: T2, CDK4/cyclin D3 (Homo sapiens, UniProt P11802); test: Human CDK4/cyclin D3 inhibitory activity (QS S Assist CDK4/Cyclin D3_FP Kit, IMAP fluorescence polarization); type: biochemical
T2 construct: purchased Carna Biosciences, Inc. QS S Assist CDK4/Cyclin D3_FP Kit
Method in brief: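 IMAP fluorescence polarization kit: CDK4/cyclin D3 at 12.5-25 ng/well with kit ATP/substrate/metal mix in 20 mM HEPES pH 7.4, 0.01% Tween20, 2 mM DTT, 45 min at room temperature. FP read at 485/535 nm after 30 min binding; IC50 from dose-response fit of percent inhibition versus enzyme and no-enzyme controls.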

[1] = Human CDK2/cyclin A2 inhibitory activity, read-out: CDK2 Activity symbol
[2] = Human CDK4/cyclin D3 inhibitory activity, read-out: CDK4 Activity symbol
[3] = 50% inhibitory concentration against CDK2/cyclin A2, given as class symbol
[4] = 50% inhibitory concentration against CDK4/cyclin D3, given as class symbol

T2 sequence (P11802 whole entry): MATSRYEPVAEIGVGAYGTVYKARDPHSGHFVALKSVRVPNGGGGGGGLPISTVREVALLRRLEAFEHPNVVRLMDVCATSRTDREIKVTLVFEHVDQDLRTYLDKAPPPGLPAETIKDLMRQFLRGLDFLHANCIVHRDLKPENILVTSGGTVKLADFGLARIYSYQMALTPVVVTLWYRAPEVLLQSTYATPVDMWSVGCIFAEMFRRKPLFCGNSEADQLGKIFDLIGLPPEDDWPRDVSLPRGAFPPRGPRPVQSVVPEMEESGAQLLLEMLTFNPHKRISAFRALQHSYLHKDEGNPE
T2 sequence (P30281 whole entry partner): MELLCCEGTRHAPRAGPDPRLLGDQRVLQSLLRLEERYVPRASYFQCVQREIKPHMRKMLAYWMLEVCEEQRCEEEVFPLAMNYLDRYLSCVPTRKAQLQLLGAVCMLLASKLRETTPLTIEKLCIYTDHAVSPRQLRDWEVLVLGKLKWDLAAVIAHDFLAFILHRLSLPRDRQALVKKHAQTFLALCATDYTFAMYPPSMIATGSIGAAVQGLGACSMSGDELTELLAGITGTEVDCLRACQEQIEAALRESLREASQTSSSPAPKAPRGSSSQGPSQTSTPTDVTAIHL

Compound | IC50 (CDK2/cyclin A2; [1]) | IC50 (CDK4/cyclin D3; [2]) | IC50 (CDK2/cyclin A2; [3]) | IC50 (CDK4/cyclin D3; [4])
CC(C)Nc1nc(C(C)O)cc2cnc(Nc3ccc(N4CCCC(O)C4)nn3)nc12 (single isomer, unassigned) [Compound 581] | ≥ 0.1 µM | < 0.01 µM | – | –
CC(C)Nc1nc(C2CCCO2)cc2cnc(Nc3ccc(N4CCNCC4)nn3)nc12 (single isomer, unassigned) [Compound 713] | – | – | ≥ 0.1 µM | < 0.01 µM
CC(C)Nc1nc(C2CCCO2)cc2cnc(Nc3ccc(N4CCNCC4)nn3)nc12 (single isomer, unassigned) [Compound 714] | – | – | ≥ 0.1 µM | ≥ 0.1 µM
CC(C)Nc1nc(C(C)O)cc2cnc(Nc3ccc(N4CCC(O)C5(CC5)C4)nn3)nc12 (single isomer, unassigned) [Compound 724] | – | – | ≥ 0.1 µM | < 0.01 µM
CC(C)Nc1nc(C(C)O)cc2cnc(Nc3ccc(N4CCC(O)C5(CC5)C4)nn3)nc12 (single isomer, unassigned) [Compound 725] | – | – | ≥ 0.1 µM | < 0.01 µM
CC(C)Nc1nc(C2CCCO2)cc2cnc(Nc3ccc(CN4CCNCC4)cn3)nc12 (single isomer, unassigned) [Compound 729] | – | – | ≥ 0.1 µM | < 0.01 µM
CC(C)Nc1nc(C2CCCO2)cc2cnc(Nc3ccc(CN4CCNCC4)cn3)nc12 (single isomer, unassigned) [Compound 730] | – | – | ≥ 0.1 µM | 0.01 to 0.1 µM
CC(C)Nc1nc(C(C)O)cc2cnc(Nc3ccc(C4CNCCO4)cn3)nc12 (single isomer, unassigned) [Compound 735] | – | – | ≥ 0.1 µM | < 0.01 µM
CC(C)Nc1nc(C(C)O)cc2cnc(Nc3ccc(C4CNCCO4)cn3)nc12 (single isomer, unassigned) [Compound 736] | – | – | ≥ 0.1 µM | < 0.01 µM
CC(C)Nc1nc(C2CCOC2)cc2cnc(Nc3ccc(N4CCNCC4=O)cn3)nc12 (single isomer, unassigned) [Compound 773] | – | – | ≥ 0.1 µM | < 0.01 µM
CC(C)Nc1nc(C2CCOC2)cc2cnc(Nc3ccc(N4CCNCC4=O)cn3)nc12 (single isomer, unassigned) [Compound 774] | – | – | ≥ 0.1 µM | 0.01 to 0.1 µM
CC(C)Nc1nc(C(C)O)cc2cnc(Nc3ccc(N4CCNCC4C(F)(F)F)cn3)nc12 (single isomer, unassigned) [Compound 775] | – | – | ≥ 0.1 µM | < 0.01 µM
CC(C)Nc1nc(C(C)O)cc2cnc(Nc3ccc(N4CCNCC4C(F)(F)F)cn3)nc12 (single isomer, unassigned) [Compound 776] | – | – | ≥ 0.1 µM | < 0.01 µM
CC(C)Nc1nc(C(C)O)cc2cnc(Nc3ccc(N4CCN(C(C)CO)CCC4=O)cn3)nc12 (single isomer, unassigned) [Compound 809] | – | – | 0.01 to 0.1 µM | < 0.01 µM
CC(C)Nc1nc(C(C)O)cc2cnc(Nc3ccc(N4CCN(C(C)CO)CCC4=O)cn3)nc12 (single isomer, unassigned) [Compound 810] | – | – | ≥ 0.1 µM | < 0.01 µM
CC(C)Nc1nc(C(C)O)cc2cnc(Nc3ccc(OC4CCC(C(=O)O)CC4)cn3)nc12 (single isomer, unassigned) [Compound 831] | – | – | ≥ 0.1 µM | 0.01 to 0.1 µM
CC(C)Nc1nc(C(C)O)cc2cnc(Nc3ccc(OC4CCC(C(=O)O)CC4)cn3)nc12 (single isomer, unassigned) [Compound 832] | – | – | ≥ 0.1 µM | 0.01 to 0.1 µM
CC(C)Nc1nc(C(C)O)cc2cnc(Nc3ccc(C4COCCN4)cn3)nc12 (single isomer, unassigned) [Compound 865] | – | – | ≥ 0.1 µM | < 0.01 µM
CC(C)Nc1nc(C(C)O)cc2cnc(Nc3ccc(C4COCCN4)cn3)nc12 (single isomer, unassigned) [Compound 866] | – | – | ≥ 0.1 µM | < 0.01 µM
CNCCOc1ccc(Nc2ncc3cc(C(C)O)nc(NC4(C)CCCOC4)c3n2)nc1 (single isomer, unassigned) [Compound 869] | – | – | 0.01 to 0.1 µM | < 0.01 µM
CNCCOc1ccc(Nc2ncc3cc(C(C)O)nc(NC4(C)CCCOC4)c3n2)nc1 (single isomer, unassigned) [Compound 870] | – | – | ≥ 0.1 µM | < 0.01 µM
Cc1nc(Nc2ncc3cc(C4CCOC4)nc(NC(C)C)c3n2)ccc1N1CCNCC1=O (single isomer, unassigned) [Compound 875] | – | – | ≥ 0.1 µM | < 0.01 µM
Cc1nc(Nc2ncc3cc(C4CCOC4)nc(NC(C)C)c3n2)ccc1N1CCNCC1=O (single isomer, unassigned) [Compound 876] | – | – | ≥ 0.1 µM | < 0.01 µM
c1cc(N2CCNCC2)nnc1Nc1ncc2cc(C3CCOC3)nc(N[C@H]3CCCOC3)c2n1 (single isomer, unassigned) [Compound 939] | – | – | ≥ 0.1 µM | < 0.01 µM
FC(F)c1cc2cnc(Nc3ccc(N4CCNCC4)cn3)nc2c(NC2CCCC2)n1 [Compound 1] | 0.01 to 0.1 µM | < 0.01 µM | – | –
FC(F)c1cc2cnc(Nc3ccc(N4CCNCC4)cn3)nc2c(N[C@H]2CCCNC2)n1 [Compound 2] | 0.01 to 0.1 µM | < 0.01 µM | – | –

Continued, values first:

IC50 (CDK2/cyclin A2; [1]) | IC50 (CDK4/cyclin D3; [2]) | IC50 (CDK2/cyclin A2; [3]) | IC50 (CDK4/cyclin D3; [4]) | Compound
– | – | ≥ 0.1 µM | < 0.01 µM | c1cc(Nc2ncc3cc(C4CCOC4)nc(N[C@H]4CCCOC4)c3n2)ncc1CN1CCNCC1 (single isomer, unassigned) [Compound 940]
– | – | ≥ 0.1 µM | < 0.01 µM | c1cc2c(nc1Nc1ncc3cc(C4CCOC4)nc(N[C@H]4CCCOC4)c3n1)CCNC2 (single isomer, unassigned) [Compound 942]
– | – | ≥ 0.1 µM | 0.01 to 0.1 µM | c1cc2c(nc1Nc1ncc3cc(C4CCOC4)nc(NC4CCCOC4)c3n1)CCNC2 (single isomer, unassigned) [Compound 943]
– | – | ≥ 0.1 µM | < 0.01 µM | CC(C)Nc1nc(C(C)O)cc2cnc(Nc3ccc(N4CCNC(C(F)(F)F)C4)nn3)nc12 (single isomer, unassigned) [Compound 989]
– | – | ≥ 0.1 µM | < 0.01 µM | CC(C)Nc1nc(C(C)O)cc2cnc(Nc3ccc(N4CCNC(C(F)(F)F)C4)nn3)nc12 (single isomer, unassigned) [Compound 990]
– | – | ≥ 0.1 µM | ≥ 0.1 µM | CCCNc1nc(C2CCCO2)cc2cnc(Nc3ccc(N4CCNCC4)cn3)nc12 (single isomer, unassigned) [Compound 1025]
– | – | ≥ 0.1 µM | 0.01 to 0.1 µM | CCCNc1nc(C2CCCO2)cc2cnc(Nc3ccc(N4CCNCC4)cn3)nc12 (single isomer, unassigned) [Compound 1026]
– | – | ≥ 0.1 µM | < 0.01 µM | CCNc1nc([C@@H](C)O)cc2cnc(Nc3ccc(CN4CCN(C(C)CO)CC4)cn3)nc12 (single isomer, unassigned) [Compound 1088]
– | – | ≥ 0.1 µM | < 0.01 µM | CCNc1nc([C@@H](C)O)cc2cnc(Nc3ccc(CN4CCN(C(C)CO)CC4)cn3)nc12 (single isomer, unassigned) [Compound 1089]
– | – | ≥ 0.1 µM | < 0.01 µM | CCCNc1nc([C@@H](C)O)cc2cnc(Nc3ccc(CN4CCN(C(C)CO)CC4)cn3)nc12 (single isomer, unassigned) [Compound 1206]
– | – | ≥ 0.1 µM | < 0.01 µM | CCCNc1nc([C@@H](C)O)cc2cnc(Nc3ccc(CN4CCN(C(C)CO)CC4)cn3)nc12 (single isomer, unassigned) [Compound 1207]
– | – | ≥ 0.1 µM | – | CCCNc1nc([C@@H](C)O)cc2cnc(Nc3ccc(CN4CCCC(O)C4)cn3)nc12 (stereo partly shown) [Compound 1082]
– | – | ≥ 0.1 µM | – | CC(C)Nc1nc([C@@H](C)O)cc2cnc(Nc3ccc(N4CCN(C(=O)C5CCCO5)CC4)nn3)nc12 (stereo partly shown) [Compound 1184]

Reference: patent US10124004B2, “Pyrido[3,4-d]pyrimidine derivative and pharmaceutically acceptable salt thereof” (Teijin Pharma Limited, priority 2015, dated 2018)
